Experimental data taken from patent EP2680005A1, “Lipid analysis” (Rheinische Friedrich-Wilhelms-Universität Bonn, priority 2012, dated 2014).
Read-outs that look alike come from different tables or passages of the source.

How the values were obtained:
[1] = system: Drosophila melanogaster L3 larvae; assay: Alkyne fatty acid labeling of opened single L3 larvae; details: 50 µM, 30 min
Protocol: (§1) Alkyne lipid precursors are supplemented to cell culture where they become incorporated into cellular lipids, e.g. into phosphatidylcholine (PC). These are extracted and reacted with the fluorogenic dye 3-azido-7-hydroxycoumarin in the presence of copper(I). […] (a) Alkyne-Bodipy at concentrations as indicated was reacted with either 60 µM 3-azido-7-hydroxycoumarin and 2mM Cu(I)BF4 (+) or incubated in ethanol for 3h at 42°C (-). The samples were separated by TLC using hexane/ethyl acetate 1/1 as the mobile phase. […] (c) Plot of the integrated fluorescence intensity of lane 6 of panel b (left) and from the corresponding one second exposure before base treatment. […] The cholesterol ester of alkyne-oleate at the indicated concentrations was subjected to detection reaction, TLC separation and fluorescence imaging using the standard protocol. […] (b) Quantification of integrated fluorescence of panel a. […] Signals were quantified either by scraping, extraction and scintillation counting (panel b, ^3H-oleate) or by integration of signals form the fluorescence image (panel b, alkyne-oleate). […] Lipids extracts were dried and subjected to detection reaction, TLC separation and fluorescence imaging using the standard protocol. […] (b) Quantification of the signals in panel a. […]

[2] = system: Freshly isolated mouse hepatocytes; assay: Hepatocyte fatty acid metabolism, time course with alkyne or natural fatty acids; type: cell-based; details: 50 µM fatty acid, all labeling times; fluorescent click analysis
Protocol: as §1

HuH7 hepatoma cells = assay: Pulse chase labeling with alkyne fatty acids; type: cell-based
Protocol: Alkyne lipid precursors are supplemented to cell culture where they become incorporated into cellular lipids, e.g. into phosphatidylcholine (PC). These are extracted and reacted with the fluorogenic dye 3-azido-7-hydroxycoumarin in the presence of copper(I). […] (a) Alkyne-Bodipy at concentrations as indicated was reacted with either 60 µM 3-azido-7-hydroxycoumarin and 2mM Cu(I)BF4 (+) or incubated in ethanol for 3h at 42°C (-). The samples were separated by TLC using hexane/ethyl acetate 1/1 as the mobile phase. The dried TLC plate was first imaged with excitation at 485 nm and emission at >520 nm (left panel, Bodipy channel), followed by treatment with 4% Hünig's base in hexane and imaging with excitation at 420 nm and emission at 484-504 nm (right panel, Coumarin channel). (b, c) Influence of dye concentration and base treatment. A172 cells were grown in a 15 cm dish and labeled with 100 µM alkyne-palmitate/alkyne-oleate 1/1 for 2 h. Lipids were extracted and dissolved in 2 ml CHCl3. 2 µl of this extract were reacted with 2 mM Cu(I)BF4 and the indicated concentration of 3-azido-7-hydroxycoumarin in 37 µl ethanol/MeCN/CHCl3 24/6/7 at 42°C for 3 h. Samples were separated by TLC and imaged (b) before (right panel) and after (left panel) treatment with 4%-Hünig's base in hexane for the times indicated. (c) Plot of the integrated fluorescence intensity of lane 6 of panel b (left) and from the corresponding one second exposure before base treatment. […] The cholesterol ester of alkyne-oleate at the indicated concentrations was subjected to detection reaction, TLC separation and fluorescence imaging using the standard protocol. […] (b) Quantification of integrated fluorescence of panel a. […] Signals were quantified either by scraping, extraction and scintillation counting (panel b, ^3H-oleate) or by integration of signals form the fluorescence image (panel b, alkyne-oleate). […] Lipids extracts were dried and subjected to detection reaction, TLC separation and fluorescence imaging using the standard protocol. […] (b) Quantification of the signals in panel a. […]

A-172 cells = assay: Alkyne-sphinganine labeling of cultivated cells, click analysis; type: cell-based; details: cultivated 1 h with the compound
Protocol: as §1

[3] = system: Freshly isolated mouse hepatocytes; assay: Comparison of 3H-oleate and alkyne-oleate labeling (click/TLC fluorescence vs scintillation counting); type: cell-based
Protocol: as §1

| Compound | incorporation into PE [1] | incorporation into TAG compared to PC [2] | fate of label after chase (HuH7 hepatoma cells; 3 min pulse, 30 min chase) | distribution of label after pulse (HuH7 hepatoma cells; 3 min pulse, no chase) | labeling of cellular lipids (A-172 cells) | amount of label in neutral lipids [3] [%] | fate of label after chase (HuH7 hepatoma cells) |
| --- | --- | --- | --- | --- | --- | --- | --- |
| C#CCCCCCCCCCCCCCCC(=O)O [alkyne-palmitate, 16-Heptadecynoic acid] | much less | equal distribution between PC and TAG | metabolized to the final products PC, PE, TAG and CE | much of the fatty acids were found as the free substance, or in biosynthetic intermediates such as PA and DAG |  |  |  |
| C#CCCCCCCCCCCCCC[C@@H](O)[C@@H](N)CO [alkyne-sphinganine, (2S,3R)-2-Aminooctadec-17-yn-1,3-diol] |  |  |  |  | strong labeling of ceramide and other sphingolipids |  |  |
| C#CCCCCCCC/C=C\CCCCCCCC(=O)O [alkyne-oleate, Nonadec-9-cis-en-18-ynoic acid] | large amounts |  |  |  |  | 49 | metabolized to the final products PC, PE, TAG and CE |
